Source: PMC12717099, “Peptidoglycan recruitment by a penicillin binding protein” (Nature Communications, 2025)

Tests used:
Assay type in all cases: binding, Enterococcus faecium
PBP5 = test: 1D 1H STD NMR of stem peptides with PBP5; details: for STD % to SP1: normalised to highest SP1:PBP5 value; for STD amplification factor: protein:peptide 1:100, 2 s saturation, 308 K
Excerpt: (§1) Total saturation time for STD measurements was 2 s.
(§2) Overlapped peaks were completely excluded from the analysis.

PBP5:PenG complex (1:8) = test: NMR CSP titration of stem peptides into PenG-saturated PBP5; details: PBP5:PenG 1:8, then SP titration
Protocol: Data was processed using Topspin 4.1.4 (Bruker) and analyzed using NMRFAM-SPARKY 1.3 and Poky (build number 20240829)[20],[21]. The sequence-specific backbone assignment of PBP5 is publicly available at BMRBID 51690.
SPs (SP1 to SP7) were titrated into 0.5 mM (^2H,^15N)-labeled and 0.1 mM (^2H,^15N)/^13C ILV labeled PBP5 at molar ratios of 0:1, 5:1, 10:1, 20:1, 40:1, 60:1, and 80:1 (stem peptide/SP:PBP5; molar ratios). 2D [^1H,^15N] TROSY or 2D [^1H,^13C] HMQC spectra were recorded for each titration point. SPs were solubilized in NMR buffer. Chemical shift perturbations (Δδ) between PBP5 and SP bound PBP5 spectra were calculated using Eq. 1,1 Δδppm=ΔδH^2+ΔδX/Y^2 where, X is ^15N or ^13C and Y is the constant i.e., 10 for ^15N and 4 for ^13C.
Residues with significant CSPs were identified by calculating the standard deviation of all CSPs (σ), then excluding any CSPs larger than average+2σ, recalculating σ as a new corrected σ0, and then repetitively removing CSPs above 2σ0 until no additional CSPs can be removed. CSPs above ≥2σ2 was the statistical threshold for ^1H/^15N backbone CSP analysis and ≥2xσ1 for ^1H/^13C methyl ILV data for the interaction of SP1 with PBP5. The same threshold values were used for all other peptides to allow for direct comparison with the SP1/PBP5 interaction. […]

PBP5:PenG complex = test: 1D 1H STD NMR of stem peptides with PBP5:PenG; details: for STD amplification factor: PenG-saturated PBP5, 2 s saturation
Excerpt: as §1, §2

Substance: D-Lac-L-Ala-D-iGln-L-Lys(D-iAsn) [SP2]
- STD amplification factor as fraction of highest SP1:PBP5 value (PBP5; 1H DLacβ): 0.3338
- STD % to SP1 (PBP5; 1H DLacβ): 33.3802%
- STD amplification factor (PBP5; 1H DLacβ): 8.982
- STD amplification factor as fraction of highest SP1:PBP5 value (PBP5; 1H DQ2β (first listed)): 0.6658
- STD % to SP1 (PBP5; 1H DQ2β (first listed)): 66.5792%
- STD amplification factor (PBP5; 1H DQ2β (first listed)): 17.9154
- STD amplification factor as fraction of highest SP1:PBP5 value (PBP5; 1H DQ2β (second listed)): 0.8494
- STD % to SP1 (PBP5; 1H DQ2β (second listed)): 84.9407%
- STD amplification factor (PBP5; 1H DQ2β (second listed)): 22.8562
- STD amplification factor as fraction of highest SP1:PBP5 value (PBP5; 1H DQ2γ): 0.2468
- STD % to SP1 (PBP5; 1H DQ2γ): 24.6819%
- STD amplification factor (PBP5; 1H DQ2γ): 6.6415
- STD amplification factor as fraction of highest SP1:PBP5 value (PBP5; 1H K3α): 0.4302
- STD % to SP1 (PBP5; 1H K3α): 43.0201%
- STD amplification factor (PBP5; 1H K3α): 11.576
- STD amplification factor as fraction of highest SP1:PBP5 value (PBP5; 1H K3β): 0.9507
- STD % to SP1 (PBP5; 1H K3β): 95.0654%
- STD amplification factor (PBP5; 1H K3β): 25.5806
- STD amplification factor as fraction of highest SP1:PBP5 value (PBP5; 1H K3γ): 0.5906
- STD % to SP1 (PBP5; 1H K3γ): 59.0623%
- STD amplification factor (PBP5; 1H K3γ): 15.8927
- STD amplification factor as fraction of highest SP1:PBP5 value (PBP5; 1H K3δ): 0.6971
- STD % to SP1 (PBP5; 1H K3δ): 69.7058%
- STD amplification factor (PBP5; 1H K3δ): 18.7567
- STD amplification factor as fraction of highest SP1:PBP5 value (PBP5; 1H K3ε): 0.1751
- STD % to SP1 (PBP5; 1H K3ε): 17.5055%
- STD amplification factor (PBP5; 1H K3ε): 4.71
- STD amplification factor as fraction of highest SP1:PBP5 value (PBP5; 1H LA1α): 0.3317
- STD % to SP1 (PBP5; 1H LA1α): 33.1655%
- STD amplification factor (PBP5; 1H LA1α): 8.924
- STD amplification factor as fraction of highest SP1:PBP5 value (PBP5; 1H LA1β): 0.3463
- STD % to SP1 (PBP5; 1H LA1β): 34.6271%
- STD amplification factor (PBP5; 1H LA1β): 9.318
- STD amplification factor as fraction of highest SP1:PBP5 value (PBP5; 1H iNα,DQ2α): 0.2066
- STD % to SP1 (PBP5; 1H iNα,DQ2α): 20.663%
- STD amplification factor (PBP5; 1H iNα,DQ2α): 5.56
- STD amplification factor as fraction of highest SP1:PBP5 value (PBP5; 1H iNβ): 0.2856
- STD % to SP1 (PBP5; 1H iNβ): 28.5568%
- STD amplification factor (PBP5; 1H iNβ): 7.684
- CSPs in presence vs absence of penicillin, in words (PBP5:PenG complex (1:8)): nearly identical
- STD amplification factor, ref to SP1 (fraction) (PBP5:PenG complex; 1H DLacβ): 0.3213
- STD, ref to SP1 (percent) (PBP5:PenG complex; 1H DLacβ): 32.1311
- STD amplification factor (PBP5:PenG complex; 1H DLacβ): 8.646
- STD amplification factor, ref to SP1 (fraction) (PBP5:PenG complex; 1H DQ2β (first listed)): 0.7026
- STD, ref to SP1 (percent) (PBP5:PenG complex; 1H DQ2β (first listed)): 70.2576
- STD amplification factor (PBP5:PenG complex; 1H DQ2β (first listed)): 18.9052
- STD amplification factor, ref to SP1 (fraction) (PBP5:PenG complex; 1H DQ2β (second listed)): 0.9395
- STD, ref to SP1 (percent) (PBP5:PenG complex; 1H DQ2β (second listed)): 93.9523
- STD amplification factor (PBP5:PenG complex; 1H DQ2β (second listed)): 25.2811
- STD amplification factor, ref to SP1 (fraction) (PBP5:PenG complex; 1H DQ2γ): 0.3025
- STD, ref to SP1 (percent) (PBP5:PenG complex; 1H DQ2γ): 30.2481
- STD amplification factor (PBP5:PenG complex; 1H DQ2γ): 8.139
- STD amplification factor, ref to SP1 (fraction) (PBP5:PenG complex; 1H K3α): 0.5268
- STD, ref to SP1 (percent) (PBP5:PenG complex; 1H K3α): 52.6829
- STD amplification factor (PBP5:PenG complex; 1H K3α): 14.1761
- STD amplification factor, ref to SP1 (fraction) (PBP5:PenG complex; 1H K3β): 1.026
- STD, ref to SP1 (percent) (PBP5:PenG complex; 1H K3β): 102.583
- STD amplification factor (PBP5:PenG complex; 1H K3β): 27.6034
- STD amplification factor, ref to SP1 (fraction) (PBP5:PenG complex; 1H K3γ): 0.589
- STD, ref to SP1 (percent) (PBP5:PenG complex; 1H K3γ): 58.9034
- STD amplification factor (PBP5:PenG complex; 1H K3γ): 15.8499
- STD amplification factor, ref to SP1 (fraction) (PBP5:PenG complex; 1H K3δ): 0.6424
- STD, ref to SP1 (percent) (PBP5:PenG complex; 1H K3δ): 64.2392
- STD amplification factor (PBP5:PenG complex; 1H K3δ): 17.2857
- STD amplification factor, ref to SP1 (fraction) (PBP5:PenG complex; 1H K3ε): 0.1756
- STD, ref to SP1 (percent) (PBP5:PenG complex; 1H K3ε): 17.5552
- STD amplification factor (PBP5:PenG complex; 1H K3ε): 4.724
- STD amplification factor, ref to SP1 (fraction) (PBP5:PenG complex; 1H LA1α): 0.4522
- STD, ref to SP1 (percent) (PBP5:PenG complex; 1H LA1α): 45.2214
- STD amplification factor (PBP5:PenG complex; 1H LA1α): 12.1683
- STD amplification factor, ref to SP1 (fraction) (PBP5:PenG complex; 1H LA1β): 0.3642
- STD, ref to SP1 (percent) (PBP5:PenG complex; 1H LA1β): 36.4217
- STD amplification factor (PBP5:PenG complex; 1H LA1β): 9.8
- STD amplification factor, ref to SP1 (fraction) (PBP5:PenG complex; 1H iNα,DQ2α): 0.2492
- STD, ref to SP1 (percent) (PBP5:PenG complex; 1H iNα,DQ2α): 24.9206
- STD amplification factor (PBP5:PenG complex; 1H iNα,DQ2α): 6.706
- STD amplification factor, ref to SP1 (fraction) (PBP5:PenG complex; 1H iNβ): 0.3249
- STD, ref to SP1 (percent) (PBP5:PenG complex; 1H iNβ): 32.4924
- STD amplification factor (PBP5:PenG complex; 1H iNβ): 8.743
